In patent US20140155445A1, “Compounds and Methods for Treating Cancer and Diseases of the Central Nervous System” (Osta Biotechnologies Inc., priority 2007, published 2014):
Blank lines part the entries; values can stand above or below the molecule they belong to.

Tests used:
SKMEL-V+ cells = assay: Cell proliferation / survival, MTT assay, SKMEL-V+ cells; type: cell-based, human; conditions: 96 hours; for % cell survival: 6.25 μM to 100 μM
Experimental: Exponentially growing SKMEL-V+ cells (1×10^3) were seeded in 96-well plates in complete medium. […] Cell survival was evaluated 96 hours later using the MTT metabolic assay (Benlimame N, He Q, Jie S, et al. FAK signaling is critical for ErbB-2/ErbB-3 receptor cooperation for oncogenic transformation and invasion. J Cell Biol 2005; 171: 505-16).

APPswe/PS1dE9 mice = assay: Behavioral studies (maze, fear conditioning) in APPswe/PS1dE9 mice; type: in vivo, mouse
Experimental: The experiments were performed at Pennington Biomedical Research Centre (PBRC) of Lousiana State University, Baton Rouge, Lousiana and were approved by the Institutional Animal Care and Use Committee (IACUC) of PBRC.
The APPswe/PS1dE9 mice were generated against a C57/BL6J background by breeding either +/+ males or females with −/− females or males, respectively.
Memantine (10 mg/kg) and both doses of QC-199 (15 mg/kg & 30 mg/kg) were prepared in batches and frozen for later use. Each compound was weighed and dissolved in injectable sterile saline solution. Memantine was prepared at a concentration of 1 mg/ml, the 15 mg/kg dose of QC-199 at a volume of 15 mg/10 ml, and the 30 mg/kg dose of QC-199 at a volume of 30 mg/10 ml. The compounds were prepared in this volume so that the mice could easily be injected based on their body weight, e.g., a 35 gram mouse was injected with 0.35 ml dosing solution.
Memantine and QC-199 dosing solutions were administered to mice via i.p. injections. The mice were weighed 3 times/week and were injected with a volume that matched their body weight. The mice were injected daily and the injection located was alternated each day to avoid potential complications from injection in the same location on a daily basis.
After reaching their respective treatment duration, the wild type and APP/PS1 double transgenic mice were run through the STM and fear conditioning. The STM consisted of one day of straight run training (running down an alley from the start box to the goal box). This phase was implemented to establish the contingency that moving forward would provide escape into the dark and dry goal box. The mice were required to reach a criterion of completing the straight run in 15 sec or less on 7 out of 9 trials over a maximum of 15 trials. […] The following day each mouse was administered 15 trials in the STM with approximately 7-10 min between each trial where they were placed into a holding cage with a towel. The latency to reach the goal box and the number of errors committed were the dependent measures of learning. However, in our experience, errors committed is much more indicative of learning and is reported for this project. Pictures of the straight run (A) and maze (B) are shown in FIG. 42, along with a schematic (C) of the maze indicating the correct path. The data from the maze was collapsed into blocks of 5 trials for data summary and presentation.
Med Associates Inc.'s MED-VFC-NIR-M NIR Video Fear Conditioning System for Mouse, Pavlovian fear conditioning was conducted after the STM. On Day 1 the mice were placed in Context 1 and given 5 tone+shock pairings. On day 2 the mice were placed back into Context 1 and their freezing response to being placed back into the original context where fear conditioning occurred was measured. Freezing is operationally defined as the cessation of all movement except that required for respiration. Freezing was measured over 10 minutes, and data were summarized in 1-min intervals. On day 3 the mice were placed into a novel context (Context 2) for 10 min. […] For the final 5 min, the tone paired with shock during fear conditioning was presented. Again, the data was summarized in 1-min intervals.
Maze data was analyzed by two-way ANOVAs to determine treatment group effects for both errors and run time after the data was collapsed into three 5 trial blocks. Planned comparisons of transgenic mice treated with saline with each of the drug treatments, memantine or QC-199 at 15 mg/kg/day and 30 mg/kg/day were conducted to evaluate group differences in the maze at each trial block and both tone and contextual fear conditioning tests. The critical a level was set at 0.05 for all statistical tests. The values in FIGS. 46A-46C represent the means±S.E.M. The data was analyzed using the SPSS statistical program version 11.0. […]

[1] = tested on: human metastatic prostate cancer PC-3M cells; assay: Orthotopic PC-3M prostate cancer model in SCID mice; type: in vivo
From the text: PC-3 & PC-3M (human prostate carcinoma). The PC-3 human prostate cancer cell line was originally obtained from the American Type Culture Collection (Rockville, Md.). The PC-3M cell line was kindly provided by Dr. Issac (MD Anderson Cancer Center). This cell variant was derived from a liver metastasis produced by the parental PC-3 cells growing in the spleen of a nude mouse [Pettaway C A, Pathak S, Greene G, et al. Selection of highly metastatic variants of different human prostate carcinomas utilizing orthotopic implantation in nude mice.
Male SCID mice were housed in laminar flow under specific pathogen-free conditions and used at 8-9 weeks of age. Animals were maintained in the LDI facilities approved by the Laboratory Animal Care in accordance with current Canadian regulations and standards for the use of animals for research.
Mice were anesthesized with isofluorane given by inhalation and placed in a supine position. […] A low midline incision was made and the prostate was exposed. Fifty microliters of HBSS containing 1×10^6 cells was injected into a lateral lobe of the prostate. The wound was closed with surgical metal clips in two layers, the muscle layer first and then the skin layer using stainless steel clips (autoclips: 9 mm; Clay Adams Inc., Parsippany, N.J.). […] Control groups received the vehicle alone. Taxol™ was given either ip or iv as indicated.
Primary tumors in the prostate were excised, measured, and weighed. When applicable, immunohistochemistry and H&E staining were conducted on one part of the tumor, fixed in formalin and embedded in paraffin or OCT compound (Miles Inc., Elkhart, Ind.); the later was rapidly frozen in liquid nitrogen, and stored at −70° C. Macroscopically enlarged regional lymph nodes were harvested and the presence of metastatic disease was confirmed by histology.
The in vivo data was analyzed using the Mann-Whitney U test.

[2] = tested on: PC-3 (human prostate carcinoma); assay: Prostate carcinoma model PC-3 in SCID mice
From the text: • Species and strain: Mouse (Mus musculus); female SCID (MDA231 and OVCAR3), male SCID (PC-3, HCT116); male CD57 B16 mice (BL16-BL6) • Age: 6-8 weeks old. • Supplier: Charles River Laboratories, Inc., St-Constant, Quebec, Canada. • Acclimation: Mice were acclimated to laboratory conditions for approximately 1 week prior to tumor cell inoculation. • Identification: Mice were identified by ear punch combination. • Housing: Mice were housed in groups of 3-5 in a designated animal facility with a temperature of 22° C., a relative humidity of 40-50%, and a 12 hr light/dark cycle.
PC-3 (human prostate carcinoma). These cells were originally received from the ATCC. Early passage cells (tested free of mycoplasma) were grown to 60% confluence in DMEM medium supplemented with 10% fetal bovine serum, and antibiotics. Cell harvesting was performed using trypsin-EDTA solution.
Exponentially growing cells were harvested using trypsin-EDTA solution. […] Cell viability was confirmed by trypan blue staining. […] One to 2 millions cells suspended in 0.1 mL phosphate buffer solution was implanted into the mammary fat pad (MCF7) or subcutaneously into the axillary region of the right flank of recipient SCID mice. All animals were inoculated at the same site.
Mice were subjected to general examination on daily basis. […] Control groups received the vehicle alone. Chemotherapy drugs were also given by intraperitoneal route according to the schedule described below.
Primary tumor growth was monitored every second to fourth day using calipers. Relative tumor volume (cm^3) was determined by the formula:
Body weights were monitored every third to fifth day. Animals experiencing signs of discomfort were sacrificed immediately (in some cases they were replaced by spared mice). […] Mice were sacrificed by cervical dislocation and immediately subjected to full autopsy.

[3] = QC-56 30 mg/kg intraperitoneally daily for 12 days, Taxol 10 mg/kg i.p. 3 cycles

SMILES: OC(Cn1ccnc1)c1ccc(-c2ccc(Br)cc2)cc1 (racemic) [QC-304, (±)-1-(4′-bromo-biphenyl-4-yl)-2-imidazol-1-yl-ethanol]
% cell survival (SKMEL-V+ cells): no significant change in cell survival
potency in comparison with the other HO-1 inhibitors (SKMEL-V+ cells; 6.25 μM): most potent

SMILES: Cl.Clc1ccc(CC[C@@]2(Cn3ccnc3)OC[C@@H](CSc3ccc(Cl)cc3)O2)cc1
melting point: 128 to 129 °C

melting point: 128 to 129 °C
SMILES: Cl.Clc1ccc(CC[C@@]2(Cn3ccnc3)OC[C@@H](CSc3cccc(Br)c3)O2)cc1

melting point: 113 to 114 °C
SMILES: Cl.Clc1ccc(CC[C@@]2(Cn3ccnc3)OC[C@@H](COc3ccc(I)cc3)O2)cc1 (stereo in doubt)

melting point: 172 to 173 °C
SMILES: Cl.Clc1ccc(CC[C@@]2(Cn3ccnc3)OC[C@@H](CSC3CCCCC3)O2)cc1

SMILES: C[C@@H]1CO[C@](CCc2ccc(Cl)cc2)(Cn2ccnc2)O1.Cl
melting point: 152 to 153 °C

melting point: 153 to 154 °C
SMILES: Cl.Fc1ccc(CCC2(Cn3ccnc3)OCCO2)cc1

melting point: 132 to 134 °C
SMILES: Cl.Clc1ccc(CC[C@@]2(Cn3ccnc3)OC[C@H](COc3ccc(C45CC6CC(CC(C6)C4)C5)cc3)O2)cc1

SMILES: CC12CC3CC(C)(C1)CC(N)(C3)C2 [Memantine, reference compound]
effect on maze errors and contextual fear conditioning (summary) (APPswe/PS1dE9 mice; Memantine, QC-199 15 mg/kg and 30 mg/kg, dtg mice): positive effect
maze errors vs saline-treated APP/PS1 mice (APPswe/PS1dE9 mice; QC-199 15 mg/kg/day i.p., Memantine 10 mg/kg i.p., improved at Trial Blocks 2 and 3, not 1): improved maze
contextual fear conditioning (freezing) vs saline-treated APP/PS1 mice (APPswe/PS1dE9 mice; QC-199 15 and 30 mg/kg/day, Memantine 10 mg/kg, Time Blocks 1-4): no significant differences
tone fear conditioning (freezing) vs saline-treated APP/PS1 mice (APPswe/PS1dE9 mice; QC-199 15 and 30 mg/kg/day, Memantine 10 mg/kg, Trial Blocks 3 and 4): no significant differences

SMILES: Cl.Clc1ccc(CC[C@@]2(Cn3ccnc3)OC[C@@H](CSc3ccc(Br)cc3)O2)cc1
melting point: 141 to 142 °C

SMILES: C[C@H]1CO[C@@](CCc2ccc(Cl)cc2)(Cn2ccnc2)O1.Cl
melting point: 148 to 149 °C

melting point: 55 to 57 °C
SMILES: Cl.Clc1ccc(CC[C@@]2(Cn3ccnc3)OC[C@@H](COc3ccc(Br)cc3)O2)cc1 (stereo in doubt)

SMILES: Cl.FC(F)(F)c1ccc(CCCCn2ccnc2)cc1 [QC-234, 1-[4-(4-(Trifluoromethyl)phenyl)butyl]-1H-imidazole hydrochloride]
% cell survival (SKMEL-V+ cells): Dose dependent decrease in cell survival

SMILES: CC(=O)O[C@H]1C(=O)[C@@]2(C)[C@H]([C@H](OC(=O)c3ccccc3)[C@]3(O)C[C@H](OC(=O)[C@H](O)[C@@H](NC(=O)c4ccccc4)c4ccccc4)C(C)=C1C3(C)C)[C@]1(OC(C)=O)CO[C@@H]1C[C@@H]2O [Taxol™, paclitaxel, reference compound]
inhibition of tumor growth [1, 3]: 64%
reduction in microscopic lymph node metastases [1, 3]: 82%
reduction in microscopic lymph node metastases ([1]; QC-56 40 mg/kg daily for 24 days, Taxol 10 mg/kg, 4 cycles): 47%
inhibition of tumor growth compared to untreated mice ([1]; QC-56 40 mg/kg daily for 24 days, Taxol 10 mg/kg, 4 cycles, 3 administrations per cycle): 45%
Body Weights (g) d8 (mean + SE) ([2]; PC-3 mice, treatment day 8): 22.40 ± 7.92 g
Body Weights (g) d42 (mean + SE) ([2]; PC-3 mice, treatment day 42): 17.70 ± 6.25 g
inhibition of tumor growth compared to vehicle alone ([2]; QC-56 60 mg/kg/ip, Taxol 10 mg/kg): ~28%

melting point: 86 to 87 °C
SMILES: Cl.OC(CCc1ccc(F)cc1)Cn1ccnc1 (racemic)
